How the values were obtained:
Human GPR120 short form = target: T1, Human GPR120 short form (Homo sapiens, UniProt Q5NUL3); assay: Human GPR120 calcium flux assay (FLIPR), Procedure Calcium A; assay type: cell-based; conditions: HEK-293 cells expressing human GPR120 short form, 2500 cells/well; read-out: GPR120 Ca2+ Assay A EC50
T1 construct: expressed in transfected cells
T1 sequence (Q5NUL3 1-361): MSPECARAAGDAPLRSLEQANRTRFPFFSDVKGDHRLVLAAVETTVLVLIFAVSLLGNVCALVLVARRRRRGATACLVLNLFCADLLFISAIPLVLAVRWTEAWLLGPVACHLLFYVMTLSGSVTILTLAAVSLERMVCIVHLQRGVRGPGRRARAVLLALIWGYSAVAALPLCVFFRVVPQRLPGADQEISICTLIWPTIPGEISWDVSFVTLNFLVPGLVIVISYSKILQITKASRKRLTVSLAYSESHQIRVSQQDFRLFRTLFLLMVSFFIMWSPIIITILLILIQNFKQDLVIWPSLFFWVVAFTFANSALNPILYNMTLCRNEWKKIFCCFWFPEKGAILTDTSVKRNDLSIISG
Description: This in vitro assay serves to assess test compound agonist activity against the short splice variant (SVS with Accession number NM_001195755.1 confirmed by sequencing data) of the GPR120 receptor. The Human Short splice variant #2 (NM_001195755.1) is missing an in-frame coding exon compared to variant 1 (the Human Long splice variant NM_181745.3), resulting in a shorter isoform (GPR120-S) lacking a 16 aa protein segment compared to isoform GPR120-L. The assay platform utilizes HEK-293 cells stably transfected to express the Human GPR120 short form. These cells are first loaded with the Ca^+2 sensitive dye, Fluo-4 NW. Upon stimulation, intracellular released Ca^+2 can bind to the dye and alter its fluorescence intensity. This increase in fluorescence signal, and thus the flux in intracellular [Ca^2+], is detected and quantitated by fluorescence imaging using a FLIPR reader. The effect of the agonist is measured as a function of concentration and used to calculate an EC50 based upon a response curve.
In this procedure 2500 cells/well were employed.
A Human GPR120 clone (Genbank accession number NM_001195755.1) was placed into the pcDNA3.1 mammalian expression vector carrying the neomycin resistance gene. A stable mammalian cell was generated by placing the above clone into a HEK293 background. Clonal cells responding to long chain fatty acids had expression levels of GPR120 confirmed by RT-qPCR. Human HEK-GPR120 cells were cultured in Dulbecco's Modified Eagle's Medium (DMEM)/F12 medium supplemented with 10% fetal bovine serum (FBS), 1% L-Glutamine and 1% penicillin/streptomycin and 0.5 mg/ml G-418. Cells were split 2 times a week to keep the cells in the log-phase growth.
In preparation for the assay, HEK cells stably transfected with Human GPR120 (2.5K cells per well in 25 uL growth medium) were seeded into 384-well plates and then incubated overnight (37° C., 5% CO2). The next day, the media was changed to 20 μL assay buffer and the cell starved for 1 h at 37° C. The dye loading solution (2× dye) was prepared using 10 mL assay buffer, 100 μL of 250 mM probenecid, 1 bottle of Component A, and 20 μl of dye in DMSO. Twenty μL of the 2× dye loading buffer was then added to each well. The plates were incubated at 37° C. for 30 min, then at room temperature for an additional 15 minutes, before performing the assay on FLIPR. Test compounds were prepared in assay buffer (2 uL of cpd+198 uL assay buffer, final DMSO in assay plate is 0.2%) at the desired concentration, more particularly at 100, 50, 25, 12.5, 6.25, 3.125, 1.562, 0.781, 0.391, 0.195, 0.098, 0.049, 0.024 and 0.012 μM.
The assay was performed on a FLIPR plate reader using the following parameters. Baseline was read for 10 seconds at 1 sec intervals. The program was set to transfer 10 μL of ligand from compound plate to cell plate after baseline reading. Aspiration was executed at: 10 μL/sec speed, 4.6 μL height; Dispensing was executed at: 30 μL/sec speed, 45 μL height. After compound addition, each well was read for 300 sec, with measurements collected at 1 sec intervals.
The kinetic data from the FLIPR was based upon a 5 minute window for data collection. The fluorescence of each sample well was used for individual calculations of a normalized RFU value, which was defined as maximum response minus the minimum response. The normalized fluorescence reading (RFU) was calculated as follows: RFU=Fmax−Fmin The data were fitted to a sigmoidal dose-response curve with a variable Hill slope (<2) using nonlinear regression with GraphPad Prism 5.0 to calculate the EC50 values. The Fitting Equation was: Y=Bottom+(Top−Bottom)/(1+10^((Log EC50−X)*HillSlope)), where X is the log of the concentration and Y is the response.

[1] = target: T2, long form of human GPR120 (Homo sapiens, UniProt Q5NUL3); assay: Human GPR120 DiscoveRx PathHunter Beta-Arrestin assay, Procedure β-arrestin A; assay type: cell-based; conditions: PathHunter CHO-K1 GPR120 β-Arrestin cell line, 3000 cells per well, read-out: hGPR120 β-arrestin A EC50
T2 construct: host or cells: PathHunter CHO-K1 GPR120 β-Arrestin Cell Line
Description: The binding of an agonist (medium/long chain fatty acids or small molecule agonists) to the G-protein-coupled receptor GPR120 activates phospholipase C, leading to release of intracellular Ca^+2 through the generation of inositol 1,4,5-trisphosphate (InsP3 or IP3). GPR120 activation can also trigger intracellular signaling via recruitment of Beta-Arrestin. In the present method, agonist-induced activation of the human GPR120 receptor is monitored through the use of PathHunter CHO-K1 GPR120 Beta-Arrestin Cell Line engineered by DiscoveRx, as detailed below. The cell lines are designed to co-express both the ProLink/Enzyme Donor (PK)-tagged GPCR and the Enzyme […] (EA)-tagged Beta-Arrestin fusion proteins. Upon GPR120 receptor stimulation/activation, the EA-tagged Beta-Arrestin portion is translocated to the tagged receptor, where the two enzyme fragments are brought within close proximity. Under these conditions, these fragments can interact and form an active Beta-gal enzyme complex through Enzyme Fragment Complementation (EFC). This active Beta-gal complex can enzymatically hydrolyse the substrate to produce a detectable light signal; therefore, activation as a function of agonist concentration can be expressed as an EC50 value to determine relative compound activities. This in vitro assay therefore serves to assess compound agonist activity of the GPR120. Procedure β-Arrestin A: In Procedure β-arrestin A, the cell used were PathHunter CHO-K1 GPR120 β-Arrestin Cell Line, expressing the long form of human GPR120 (Genbank accession number NM 181745), with 3000 cells per well. Procedure β-Arrestin B: In Procedure 3-arrestin B the cells used were PathHunter CHO-K1 GPR120S β-Arrestin Cell Line, expressing the short form of the GPR120 receptor (Accession #NM_181745), with 5000 cells/well. Assay Procedure:
The selected CHO-K1 GPR120 β-Arrestin cells were cultured in Ham's F12 media supplemented with 10% fetal bovine serum (FBS), 1% Glutamine, lx p/s, 800 μg/mL G418 and 300 μg/mL Hygromycin B (for selection). Cell stocks were maintained and grown in a sub-confluent state using standard cell culture procedures. The day before the experiment, the cells were harvested with non-enzymatic cell dissociation buffer and re-suspended in complete growth media at the desired concentration. A Corning 384-plate was then seeded with the proper number of cells in a volume of 25 μL, per well. The seeded plates were incubated overnight at 37° C.
On the day of the experiment, the Assay Buffer containing (a) HBSS with Ca^++ and Mg^++, (b) 20 mM HEPES, and (c) 0.1% BSA stabilizer (pH 7.4) was prepared. The growth medium was gently removed from the cell plates and 20 μL of Assay Buffer added to each well. The plate was then incubated at 37° C. for 60 min. Test compounds were serially diluted in Assay Buffer to desired concentrations (more particularly to one or more of the following μM concentrations: 25, 12.5, 6.25, 3.125, 1.5625, 0.78125, 0.390625, 0.1953125, 0.09765625, 0.048828125, 0.024414063, 0.012207031). Five μL of compound dilution was then added to each well and the plate incubated at 37° C. for 90 min. The detection reagents were prepared according to the manufacture's instruction. Twelve μL of the detection reagents were added to each well and the plate incubated at room temperature for 60 min.
The plates were read on an EnVision instrument, using Protocol name: Luminescence, Plate type: 384 Costar, Measurement height: 3 mm, Measurement time: 1 s, Aperture: 384 Plate aperture. The % activity relative to the positive control was calculated using the following equation:
The % Activity values were plotted versus the concentration of test compound and fitted to a sigmoidal dose-response curve with a Hill slope=1 (fixed value) using nonlinear regression with GraphPad Prism 5.0 to calculate the EC50 values. […]

T2 sequence (Q5NUL3 1-377 isoform Q5NUL3-1): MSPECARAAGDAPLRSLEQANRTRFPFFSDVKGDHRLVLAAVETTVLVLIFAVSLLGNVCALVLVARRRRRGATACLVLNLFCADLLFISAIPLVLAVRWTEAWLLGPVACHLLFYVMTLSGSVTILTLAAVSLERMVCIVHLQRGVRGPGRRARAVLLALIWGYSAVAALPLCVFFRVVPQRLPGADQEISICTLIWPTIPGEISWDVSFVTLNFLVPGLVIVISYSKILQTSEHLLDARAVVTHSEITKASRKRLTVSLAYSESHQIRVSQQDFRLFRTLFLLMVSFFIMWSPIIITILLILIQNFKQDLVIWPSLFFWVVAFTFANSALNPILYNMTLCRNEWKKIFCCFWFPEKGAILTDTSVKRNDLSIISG
T2 sequence (P32121 whole entry partner): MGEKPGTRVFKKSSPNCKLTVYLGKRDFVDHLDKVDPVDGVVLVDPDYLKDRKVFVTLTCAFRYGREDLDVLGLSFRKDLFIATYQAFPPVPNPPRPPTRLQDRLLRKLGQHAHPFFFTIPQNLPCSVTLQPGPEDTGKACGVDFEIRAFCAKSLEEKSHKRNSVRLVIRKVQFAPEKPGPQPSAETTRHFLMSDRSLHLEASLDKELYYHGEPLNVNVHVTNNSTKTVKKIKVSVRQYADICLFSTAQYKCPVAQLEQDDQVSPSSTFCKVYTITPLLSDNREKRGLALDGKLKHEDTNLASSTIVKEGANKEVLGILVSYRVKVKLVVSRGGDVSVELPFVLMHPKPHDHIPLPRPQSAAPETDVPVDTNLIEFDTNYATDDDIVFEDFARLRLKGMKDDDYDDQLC

EC50 (Human GPR120 short form) [nM]	EC50 [1] [nM]	Compound
39	103	O=C(O)CCc1ccc(OCc2c(Cl)nsc2-c2ccc(Cl)cc2)c(F)c1F [Cpd 72, 3-(4-[[3-chloro-5-(4-chlorophenyl)-1,2-thiazol-4-yl]methoxy]-2,3-difluorophenyl)propanoic acid]
106	128	Cc1snc(-c2ccc(Cl)cc2)c1COc1ccc(CCC(=O)O)c(F)c1F [Cpd 119, 3-(4-((3-(4-chlorophenyl)-5-methylisothiazol-4-yl)methoxy)-2,3-difluorophenyl)propanoic acid]
181	344	CCc1ccc(-c2sccc2COc2c(F)cc(CCC(=O)O)cc2F)cc1 [Cpd 52, 3-(4-((2-(4-ethylphenyl)thiophen-3-yl)methoxy)-3,5-difluorophenyl)propanoic acid]
634	108	OCCCc1cc(F)c(OCc2sc(Cl)cc2-c2ccc(Cl)cc2)c(F)c1 [Cpd 19, 3-(4-[[5-chloro-3-(4-chlorophenyl)thiophen-2-yl]methoxy]-3,5-difluorophenyl)propan-1-ol]
171	100	O=C(O)CCc1cc(F)c(OCc2c(-c3ccc(Cl)cc3)csc2C(F)(F)F)c(F)c1F [Cpd 50, 3-(4-((4-(4-chlorophenyl)-2-(trifluoromethyl)thiophen-3-yl)methoxy)-2,3,5-trifluorophenyl)propanoic acid]
300	52	CCc1ccc(-c2snc(Cl)c2COc2c(F)cc(CCCO)cc2F)cc1 [Cpd 183, 3-(4-[[3-chloro-5-(4-ethylphenyl)-1,2-thiazol-4-yl]methoxy]-3,5-difluorophenyl)propan-1-ol]
185	368	Cc1c(CCC(=O)O)ccc(OCc2c(Cl)nsc2-c2cccc(Cl)c2)c1C [Cpd 156, 3-(4-[[3-chloro-5-(3-chlorophenyl)-1,2-thiazol-4-yl]methoxy]-2,3-dimethylphenyl)propanoic acid]
101	71	COc1ccc(-c2csc(C(F)(F)F)c2COc2c(F)cc(CCCO)cc2F)cn1 [Cpd 38, 3-(3,5-difluoro-4-((4-(6-methoxypyridin-3-yl)-2-(trifluoromethyl)thiophen-3-yl)methoxy)phenyl)propan-1-61]
	243	OCCCc1ccc(OCc2sc(Cl)cc2-c2ccc(Cl)cc2)c(F)c1F [Cpd 29, 3-(4-[[5-chloro-3-(4-chlorophenyl)thiophen-2-yl]methoxy]-2,3-difluorophenyl)propan-1-ol]
	191	Cc1ccc(-c2snc(Cl)c2COc2c(F)cc(CCC(=O)O)cc2F)c(F)c1 [Cpd 77, 3-(4-[[3-chloro-5-(2-fluoro-4-methylphenyl)-1,2-thiazol-4-yl]methoxy]-3,5-difluorophenyl)propanoic acid]
	145	COc1ccc(-c2nsc(C(F)(F)F)c2COc2c(F)cc(CCCO)cc2F)cc1 [Cpd 234, 3-(3,5-difluoro-4-[[3-(4-methoxyphenyl)-5-(trifluoromethyl)-1,2-thiazol-4-yl]methoxy]phenyl)propan-1-ol]
	203	CCc1ccc(-c2nsc(C(F)(F)F)c2COc2c(C)cc(CCC(=O)O)cc2C)cc1 [Cpd 239, 3-(4-((3-(4-ethylphenyl)-5-(trifluoromethyl)isothiazol-4-yl)methoxy)-3,5-dimethylphenyl)propanoic acid]
	186	O=C(O)CCc1ccc(OCc2sc(Cl)cc2-c2ccc(Cl)cc2)c(F)c1F [Cpd 28, 3-(4-[[5-chloro-3-(4-chlorophenyl)thiophen-2-yl]methoxy]-2,3-difluorophenyl)propanoic acid]
	302	Cc1cc(CCC(=O)O)ccc1OCc1c(-c2ccc(Cl)cc2)nsc1C(F)(F)F [Cpd 235, 3-(4-[[3-(4-chlorophenyl)-5-(trifluoromethyl)-1,2-thiazol-4-yl]methoxy]-3-methylphenyl)propanoic acid]
> 5000		Cc1c(/C=C/C(=O)O)ccc(OCc2c(-c3ccc(Cl)cc3)nsc2C(F)(F)F)c1C [Cpd 244, (E)-3-(4-((3-(4-chlorophenyl)-5-(trifluoromethyl)isothiazol-4-yl)methoxy)-2,3-dimethylphenyl)acrylic acid]

— US9067898B1, “Isothiazole derivatives as GPR120 agonists for the treatment of type II diabetes” (Janssen Pharmaceutica NV, priority 2014, dated 2015)
